# Assay results as given in the supplement of paper PMC11451515.
# Test system: NOMO1
# Test: cell viability relative to DMSO control; higher = less cytotoxic
# Settings: 48 h
# Procedure, shortened: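 Viability was expressed as a per-plate percentage of DMSO wells, with cell-free wells as background. Leukemia cells (NOMO1 or SEM at 500 cells/well, P12-Ichikawa at 1000 cells/well) were adapted for at least four passages in each medium and seeded in 1536-well plates (5 μl). Library compounds in DMSO were pin-dosed over an 11-point threefold series from 47 μM to 0.79 nM, and CellTiter-Glo One luminescence was read after 48 h at 37°C.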
# [1] = HPLM + 10% dialyzed FBS, 0.000781 µM
# [2] = HPLM + 10% dialyzed FBS, 0.00234 µM
# [3] = HPLM + 10% dialyzed FBS, 0.00702 µM
# [4] = HPLM + 10% dialyzed FBS, 0.0211 µM
# [5] = HPLM + 10% dialyzed FBS, 0.0632 µM
# [6] = HPLM + 10% dialyzed FBS, 0.19 µM
# [7] = HPLM + 10% dialyzed FBS, 0.569 µM
# [8] = HPLM + 10% dialyzed FBS, 1.71 µM
# [9] = HPLM + 10% dialyzed FBS, 5.12 µM
# [10] = HPLM + 10% dialyzed FBS, 15.4 µM
# [11] = HPLM + 10% dialyzed FBS, 46.1 µM
# [12] = RPMI 5 mM glucose + 10% FBS, 0.000781 µM
# [13] = RPMI 5 mM glucose + 10% FBS, 0.00234 µM
# [14] = RPMI 5 mM glucose + 10% FBS, 0.00702 µM
# [15] = RPMI 5 mM glucose + 10% FBS, 0.0211 µM
# [16] = RPMI 5 mM glucose + 10% FBS, 0.0632 µM
# [17] = RPMI 5 mM glucose + 10% FBS, 0.19 µM
# [18] = RPMI 5 mM glucose + 10% FBS, 0.569 µM
# [19] = RPMI 5 mM glucose + 10% FBS, 1.71 µM
# [20] = RPMI 5 mM glucose + 10% FBS, 5.12 µM
# [21] = RPMI 5 mM glucose + 10% FBS, 15.4 µM
# [22] = RPMI 5 mM glucose + 10% FBS, 46.1 µM
# [23] = RPMI 5 mM glucose + 10% dialyzed FBS, 0.000781 µM
# [24] = RPMI 5 mM glucose + 10% dialyzed FBS, 0.00234 µM
# [25] = RPMI 5 mM glucose + 10% dialyzed FBS, 0.00702 µM
# [26] = RPMI 5 mM glucose + 10% dialyzed FBS, 0.0211 µM
# [27] = RPMI 5 mM glucose + 10% dialyzed FBS, 0.0632 µM
# [28] = RPMI 5 mM glucose + 10% dialyzed FBS, 0.19 µM
# [29] = RPMI 5 mM glucose + 10% dialyzed FBS, 0.569 µM
# [30] = RPMI 5 mM glucose + 10% dialyzed FBS, 1.71 µM
# [31] = RPMI 5 mM glucose + 10% dialyzed FBS, 5.12 µM
# [32] = RPMI 5 mM glucose + 10% dialyzed FBS, 15.4 µM
# [33] = RPMI 5 mM glucose + 10% dialyzed FBS, 46.1 µM
SMILES,cell viability [1],cell viability [2],cell viability [3],cell viability [4],cell viability [5],cell viability [6],cell viability [7],cell viability [8],cell viability [9],cell viability [10],cell viability [11],cell viability [12],cell viability [13],cell viability [14],cell viability [15],cell viability [16],cell viability [17],cell viability [18],cell viability [19],cell viability [20],cell viability [21],cell viability [22],cell viability [23],cell viability [24],cell viability [25],cell viability [26],cell viability [27],cell viability [28],cell viability [29],cell viability [30],cell viability [31],cell viability [32],cell viability [33]
O=C(N[C@H]1CN2CCC1CC2)c1ccc(Cl)cc1,91.3%,106%,110%,138%,123%,127%,118%,107%,127%,103%,68.1%,97.8%,97.1%,103%,101%,114%,103%,103%,94.8%,92.2%,102%,98.3%,107%,101%,97.2%,91.4%,108%,109%,103%,92.2%,103%,106%,109%
CCN(CCO)CCCC(C)Nc1ccnc2cc(Cl)ccc12 (stereo unspecified),111%,105%,104%,123%,112%,139%,107%,101%,90%,53.2%,26%,107%,115%,110%,102%,101%,118%,115%,116%,110%,45.2%,21%,,,,,,,,,,,
Cc1ccc(Nc2nccc(N(C)c3ccc4c(C)n(C)nc4c3)n2)cc1[S+](N)(=O)[O-],107%,118%,102%,112%,121%,129%,126%,112%,132%,112%,50.9%,93.9%,101%,92.1%,103%,99.5%,101%,107%,114%,105%,100%,50.3%,95.8%,92.1%,102%,85.4%,104%,112%,105%,123%,110%,97.2%,71.1%
CON(C)C(=O)N1\N=C(/S[C@]1(CCCN)C2=CC=CC=C2)C3=CC(=CC=C3F)F,65%,41.6%,39.2%,46.7%,46.2%,40.4%,30.8%,37.2%,32.1%,24.7%,24.1%,55.1%,22.8%,26.3%,27.1%,21.7%,20%,23.4%,22.8%,20.6%,15.6%,15.7%,96%,30.7%,36.8%,35%,32.2%,31.2%,27.9%,32.6%,28.5%,22.6%,22.5%
CCN(CC)CCNC(=O)c1ccc2nc(-c3ccccc3)c(-c3ccc(CN4CCC(n5c(=O)[nH]c6ccccc65)CC4)cc3)nc2c1,95.1%,124%,152%,134%,112%,130%,107%,93.6%,10.6%,8.39%,4.57%,,,,,,,,,,,,,,,,,,,,,,
COc1ccc(-c2cc3c(C)nc(N)nc3n([C@H]3CC[C@H](OCCO)CC3)c2=O)cn1,96.9%,97.5%,88.7%,76.4%,74.2%,50%,52.6%,38%,38.8%,28.3%,20%,93.6%,87%,90.7%,84.8%,87.4%,64.5%,68.5%,47.7%,43.1%,40.3%,28.4%,86.8%,86.6%,80.7%,75.1%,66.4%,58.4%,50%,41.2%,37.6%,34.8%,23.3%
C[C@@H](Oc1ccc2[nH]nc(/C=C/c3cnn(CCO)c3)c2c1)c1c(Cl)cncc1Cl,99.5%,102%,98.9%,93.9%,99.9%,89.7%,86%,86.4%,70.9%,38.4%,41.3%,94.6%,108%,89.2%,86%,80.9%,83.6%,89.3%,76.3%,74.2%,40%,33.9%,82.9%,92.3%,89%,85.2%,92.8%,99.1%,87.4%,73.5%,80.9%,40.9%,34.9%
OCCN1CCN(CCCN2c3ccccc3Sc3ccc(C(F)(F)F)cc32)CC1,123%,121%,107%,122%,111%,106%,98.8%,122%,73.2%,43%,27.7%,104%,104%,100%,121%,97.5%,110%,112%,105%,104%,25.7%,21.3%,91.6%,102%,108%,105%,105%,109%,110%,97.3%,109%,93.9%,24.8%
